Data from paper PMC13544220, “Glycemic and bodyweight effects of GIPR coding variation reflect differences in surface expression and intrinsic functional impairment” (Science Advances, 2026).

Assays:
[1] = tested on: wild-type and variant SNAP-GIPR; assay: cAMP concentration response (HTRF) in AD293 cells, SNAP-GIPR; format: cell-based, human
Experimental: (Imperial College London): 24 hours before the experiment, AD293 cells were reverse transfected with the GIPR variant or wild-type plasmids using Lipofectamine 2000 in 12-well plates. All variants were tested in parallel on each occasion to control for transfection efficiency differences between experiments. […] Data were fit using a three-parameter logistic model using GraphPad Prism 10.

[2] = tested on: wild-type and variant SNAP-GIPR; assay: Mini-Gs recruitment (nanoBiT) in AD293 cells; format: cell-based, human; details: 100 nM GIP, mean, n=7
Experimental: AD293 cells were reverse transfected with the GIPR variant or wild-type plasmids plus mini-Gs-LgBiT in a 1:1 ratio using Lipofectamine 2000 in 96-well white-bottom microplates precoated with 0.01% poly-D-lysine. All variants were tested in parallel on each occasion to control for transfection efficiency differences between experiments. After 24 hours, media were removed, cells washed once, and HBSS (Hanks’ balanced salt solution) containing furimazine (Promega, UK) at a 1:100 dilution was added. […] Responses were quantified by as fractional change from baseline with subtraction of the response to vehicle to account for substrate depletion, from which the AUC (area under the curve) was calculated and scaled to the average response obtained from each experiment.

CC[C@H](C)[C@H](NC(=O)[C@H](CO)NC(=O)[C@H](Cc1ccc(O)cc1)NC(=O)[C@H](CC(=O)O)NC(=O)[C@H](CO)NC(=O)[C@@H](NC(=O)[C@H](Cc1ccccc1)NC(=O)[C@@H](NC(=O)CNC(=O)[C@H](CCC(=O)O)NC(=O)[C@H](C)NC(=O)[C@@H](N)Cc1ccc(O)cc1)[C@@H](C)O)[C@@H](C)CC)C(=O)N[C@@H](C)C(=O)N[C@@H](CCSC)C(=O)N[C@@H](CC(=O)O)C(=O)N[C@@H](CCCCN)C(=O)N[C@H](C(=O)N[C@@H](Cc1c[nH]cn1)C(=O)N[C@@H](CCC(N)=O)C(=O)N[C@@H](CCC(N)=O)C(=O)N[C@@H](CC(=O)O)C(=O)N[C@@H](Cc1ccccc1)C(=O)N[C@H](C(=O)N[C@@H](CC(N)=O)C(=O)N[C@@H](Cc1c[nH]c2ccccc12)C(=O)N[C@@H](CC(C)C)C(=O)N[C@@H](CC(C)C)C(=O)N[C@@H](C)C(=O)N[C@@H](CCC(N)=O)C(=O)N[C@@H](CCCCN)C(=O)NCC(=O)N[C@@H](CCCCN)C(=O)N[C@@H](CCCCN)C(=O)N[C@@H](CC(N)=O)C(=O)N[C@@H](CC(=O)O)C(=O)N[C@@H](Cc1c[nH]c2ccccc12)C(=O)N[C@@H](CCCCN)C(=O)N[C@@H](Cc1c[nH]cn1)C(=O)N[C@@H](CC(N)=O)C(=O)N[C@H](C(=O)N[C@H](C(=O)N[C@@H](CCC(N)=O)C(=O)O)[C@@H](C)O)[C@@H](C)CC)C(C)C)[C@@H](C)CC [GIP, glucose-dependent insulinotropic polypeptide, reference compound]
cAMP signaling (∆LogEmax/EC50) ([1]; AD293, SNAP-GIPR E288G, R190Q, R101H, 0.1% BSA): markedly reduced responses
cAMP agonism ([1]; AD293, SNAP-GIPR R101H and R190Q): very weak agonists
cAMP signaling (∆LogEmax/EC50) ([1]; AD293, SNAP-GIPR S64A, R136W, R217L, vs wild-type): moderately reduced
mini-Gs recruitment ([2]; A207V): 1.64 vs. experimental average
mini-Gs recruitment ([2]; A268V): 1.037 vs. experimental average
mini-Gs recruitment ([2]; D66G): 0.1098 vs. experimental average
mini-Gs recruitment ([2]; E252D): 1.347 vs. experimental average
mini-Gs recruitment ([2]; E288G): 0.1501 vs. experimental average
mini-Gs recruitment ([2]; E354Q): 1.309 vs. experimental average
mini-Gs recruitment ([2]; E463Q): 1.656 vs. experimental average
mini-Gs recruitment ([2]; G438S): 1.599 vs. experimental average
mini-Gs recruitment ([2]; I378M): 1.145 vs. experimental average
mini-Gs recruitment ([2]; I403V): 1.332 vs. experimental average
mini-Gs recruitment ([2]; L100F): 1.391 vs. experimental average
mini-Gs recruitment ([2]; L262H): 1.034 vs. experimental average
mini-Gs recruitment ([2]; L262V): 1.282 vs. experimental average
mini-Gs recruitment ([2]; L304R): 0.04884 vs. experimental average
mini-Gs recruitment ([2]; R101H): 0.1049 vs. experimental average
mini-Gs recruitment ([2]; R131S): 1.232 vs. experimental average
mini-Gs recruitment ([2]; R136W): 0.7709 vs. experimental average
mini-Gs recruitment ([2]; R183Q): 0.3712 vs. experimental average
mini-Gs recruitment ([2]; R190Q): -0.001793 vs. experimental average
mini-Gs recruitment ([2]; R196G): 1.201 vs. experimental average
mini-Gs recruitment ([2]; R217L): 1.091 vs. experimental average
mini-Gs recruitment ([2]; R300W): 1.262 vs. experimental average
mini-Gs recruitment ([2]; R336P): 1.585 vs. experimental average
mini-Gs recruitment ([2]; R341P): 0.3717 vs. experimental average
mini-Gs recruitment ([2]; R404H): 1.074 vs. experimental average
mini-Gs recruitment ([2]; S64A): 0.6095 vs. experimental average
mini-Gs recruitment ([2]; S415G): 1.199 vs. experimental average
mini-Gs recruitment ([2]; S415I): 1.365 vs. experimental average
mini-Gs recruitment ([2]; S447T): 1.5239 vs. experimental average
mini-Gs recruitment ([2]; T116R): 0.9756 vs. experimental average
mini-Gs recruitment ([2]; WT): 1.184 vs. experimental average
